Experimental data as given in US9078811B2, “Methods of increasing oral bioavailability of tetracyclines” (Paratek Pharmaceuticals, Inc., priority 2006, dated 2015).
Structures can show the parent of a compound that is named as a salt.

Experiments:
Assay type in all cases: in vivo
[1] = PK following intravenous administration in rats; conditions: for AUC: IV 1 mg/kg, jugular vein
Description: The bioavailability of 9-[(2,2, dimethyl-propyl amino)-methyl]-minocycline following intravenous administration in rats was studied. The freebase (“FB”) and the HCl salt (“HCl salt”) of 9-[(2,2, dimethyl-propyl amino)-methyl]-minocycline were used. All formulations were prepared fresh on the day of the experiment. Samples for pharmacokinetic analysis were collected from a cannula within the carotid artery of the rats. Intravenous doses of (1 mg/kg) were administered to rats through cannulas in either the jugular or portal veins.

[2] = PK and bioavailability following intra-duodenal administration in rats
Description: In order to measure the effect of delivering 9-[(2,2, dimethyl-propyl amino)-methyl]-minocycline directly into the duodenum, rats bearing duodenal cannulas were administered 9-[(2,2, dimethyl-propyl amino)-methyl]-minocycline freebase alone or in combination with bioavailability enhancing agents to assess their effects on bioavailability.

[3] = PK and oral bioavailability following dosing via oral gavage in rats
Description: Solutions of 9-[(2,2, dimethyl-propyl amino)-methyl]-minocycline freebase (5 mg/kg [2 ml/kg]) were administered by oral gavage. The solutions were composed of 9-[(2,2, dimethyl-propyl amino)-methyl]-minocycline alone or in combination with bioavailability enhancing agents to assess their effect on oral bioavailability.
The % F was calculated using the IV data presented in Example 1 and the equation: % F=Oral AUC/IV AUC.

[4] = Effects of permeability enhancers on bioavailability, oral gavage in rats
Description: As a control, a solution of 9-[(2,2, dimethyl-propyl amino)-methyl]-minocycline freebase (“freebase”) was prepared using sterile water and the final pH was adjusted to ˜5. To prepare the sodium caprate (sodium decanoate, a compound that increases paracellular permeability) containing solution, the freebase was first dissolved in sterile water and sodium caprate was then added to a final concentration of 13 mM. The resulting solution was administered to rats via oral gavage without pH adjustment. The solution of freebase containing 1.5% chitosan was then prepared by first dissolving the freebase in sterile water and then adjusting the pH of this solution (pH ˜8.1) to a final pH ˜5 using 1N HCl. Chitosan was then added to a final concentration of 1.5% and the resulting solution was administered to rats via oral gavage as a slurry.

[5] = rats with duodenal cannulas, intra-duodenal administration

AUC ([1]; fasted, 1 mg/kg) | AUC ([1]; fed) [µg·h/mL] | differences in pharmacokinetic parameters, freebase vs HCl salt ([1]; IV, fasted animals) | total exposure (AUC) and clearance, portal vein vs jugular vein ([1]; IV, fasted animals) | tendency for higher clearance in a fed group ([1]; IV, fed vs fasted) [%] | effects of first pass hepatic elimination on pharmacokinetics ([1]; after IV dosing) | % F [2, 5] [%] | AUC [2, 5] [ng·h/mL] | change in AUC when administered directly to the duodenum ([2]; rats, intra-duodenal) | % F (oral bioavailability) ([3]; oral gavage 5 mg/kg, calculated using the IV data of Example 1) [%] | AUC ([3]; oral gavage, 5 mg/kg [2 ml/kg] solution) [ng·h/mL] | % F [4] [%] | AUC [4] [ng·h/mL] | SMILES
0.59 (0.45; 0.73) ug*hr/mL | 0.46 ± 0.04 | no significant differences | equal | ~22 |  |  |  |  |  |  |  |  | CN(C)c1cc(CNCC(C)(C)C)c(O)c2c1C[C@H]1C[C@H]3[C@H](N(C)C)C(O)=C(C(N)=O)C(=O)[C@@]3(O)C(O)=C1C2=O [HCl salt, 9-[(2,2, dimethyl-propylamino)-methyl]-minocycline]
0.57 (0.50; 0.63) ug*hr/mL |  | no significant differences |  |  | no significant effects | 15.4 ± 5.2 | 440 ± 150 | significant increase in AUC | 11.7 ± 4.1 | 330 ± 120 | 11.7 ± 4.1 | 330 ± 120 | CN(C)c1cc(CNCC(C)(C)C)c(O)c2c1C[C@H]1C[C@H]3[C@H](N(C)C)C(O)=C(C(N)=O)C(=O)[C@@]3(O)C(O)=C1C2=O [FB, 9-[(2,2, dimethyl-propylamino)-methyl]-minocycline]
